The values below come from patent EP2951180B1, “2,6,7,8 SUBSTITUTED PURINES AS HDM2 INHIBITORS” (Merck Sharp & Dohme Corp., priority 2013, dated 2014).

The target of one assay is T1, HDM2 (Homo sapiens, UniProt Q00987).
T1 construct: Thioredoxin (N); made in house; host or cells: E. coli strain BL21(DE3)Rosetta
T1 sequence (Q00987 17-125): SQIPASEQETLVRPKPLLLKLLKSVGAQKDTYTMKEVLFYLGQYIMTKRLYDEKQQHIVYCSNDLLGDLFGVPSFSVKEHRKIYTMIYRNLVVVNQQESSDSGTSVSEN
The experiment in a line: HDM2 FRET assay (inhibition of binding of FITC labeled p53-pocket peptide to HDM2). Particulars: Table 18; read-out: FRET IC50. An outline of the steps:
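Signal is read as the 520/495 nm emission ratio and converted to percent inhibition; nonlinear sigmoidal regression yields IC50. The assay mixes HDM2 (0.5 nM), FITC-p53 peptide (3 nM) and Tb anti-His antibody (0.25 nM) at 0.1% DMSO.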
Broadly, the IC50 is the concentration at which inhibition is half-maximal. In the case of `CC[C@H]1CC[C@H](Cn2c(N3CCOC[C@H]3c3ccccc3)nc3nc(-c4noc(=O)[nH]4)nc(N[C@H](C)C4CCC4)c32)CC1` [Example 18.22, 3-(6-{[(1R)-1-cyclobutylethyl]amino}-7-[(trans-4-ethylcyclohexyl)methyl]-8-[(3R)-3-phenylmorpholin-4-yl]-7H-purin-2-yl)-1,2,4-oxadiazol-5(4H)-one], the IC50 is 3.86 nM.
In the case of `CCC1CC=C(Cn2c(-c3cc(C(C)C)ccn3)nc3nc(C(=O)O)nc(N[C@H](C)C4CCC4)c32)CC1` (stereo partly drawn) [Example 18.23, 6-{[(1R)-1-cyclobutylethyl]amino}-7-[(4-ethylcyclohex-1-en-1-yl)methyl]-8-[4-(1-methylethyl)pyridin-2-yl]-7H-purine-2-carboxylic acid], the IC50 was found to be 26.4 nM.
Same read-out and setting: then `CCC1=CCC(Cn2c(-c3cc(C(C)C)ccn3)nc3nc(C(=O)O)nc(N[C@H](C)C4CCC4)c32)CC1` (stereo partly drawn) [Example 18.24, 6-{[(1R)-1-cyclobutylethyl]amino}-7-[(4-ethylcyclohex-3-en-1-yl)methyl]-8-[4-(1-methylethyl)pyridin-2-yl]-7H-purine-2-carboxylic acid], with 15.9 nM; and `CCC1=CCC(Cn2c(-c3cc(C(C)C)ccn3)nc3nc(-c4noc(=O)[nH]4)nc(N[C@H](C)C4CCC4)c32)CC1` (stereo partly drawn) [Example 18.25, 3-(6-{[(1R)-1-cyclobutylethyl]amino}-7-[(4-ethylcyclohex-3-en-1-yl)methyl]-8-[4-(1-methylethyl)pyridin-2-yl]-7H-purin-2-yl)-1,2,4-oxadiazol-5(4H)-one], with 44 nM; and `Cc1cccc(-c2nc3nc(C(=O)O)nc(N[C@H](C)C4CCC4)c3n2C[C@H]2CC[C@@H](C(F)(F)F)CC2)c1` [Example 18.29, 6-{[(1R)-1-cyclobutylethyl]amino}-8-(3-methylphenyl)-7-{[cis-4-(trifluoromethyl)cyclohexyl]methyl}-7H-purine-2-carboxylic acid], with 677 nM.
The same measure, in the same setting: the same measure for `CC(C)c1ccnc(-c2nc3nc(-c4noc(=O)[nH]4)nc(N[C@H](C)C4CCC4)c3n2C[C@H]2CC[C@H](C(F)(F)F)CC2)c1` [Example 18.30, 3-(6-{[(1R)-1-cyclobutylethyl]amino}-8-[4-(1-methylethyl)pyridin-2-yl]-7-{[trans-4-(trifluoromethyl)cyclohexyl]methyl}-7H-purin-2-yl)-1,2,4-oxadiazol-5(4H)-one]: 13 nM; for `CC([C@H]1CC[C@H](C)CC1)n1c(N2CCOC3CCCC32)nc2nc(-c3n[nH]c(=O)o3)nc(N[C@H](C)C3CCC3)c21` (stereo partly drawn) [Example 18.44, 5-(6-{ [(1R)-1-cyclobutylethyl]amino}-8-(hexahydrocyclopenta[b] [1,4]oxazin-4(4aH)-yl)-7-[1-(trans-4-methylcyclohexyl)ethyl]-7H-purin-2-yl)-1,3,4-oxadiazol-2(3H)-one]: 5.37 nM.
The same measure, in the same setting: the same measure for `CC([C@H]1CC[C@H](C)CC1)n1c(N2CCC[C@H]2C(F)(F)F)nc2nc(-c3noc(=O)[nH]3)nc(-c3cncc(Cl)c3)c21` (stereo partly drawn) [Example 18.49, 3-{6-(5-chloropyridin-3-yl)-7-[1-(trans-4-methylcyclohexyl)ethyl]-8-[(2S)-2-(trifluoromethyl)pyrrolidin-1-yl]-7H-purin-2-yl}-1,2,4-oxadiazol-5(4H)-one]: 0.67 nM.

The assay is the same for the next values; noted with them: Table 19; read-out: FRET IC50.
Turning to `C[C@@H](Nc1nc(-c2noc(=O)[nH]2)nc2nc(Sc3ccccc3)n(C[C@H]3CC[C@H](C)CC3)c12)C1CCC1` [Example 19.1, 3-[6-{[(1R)-1-cyclobutylethyl]amino}-7-[(trans-4-methylcyclohexyl)methyl]-8-(phenylsulfanyl)-7H-purin-2-yl]-1,2,4-oxadiazol-5(4H)-one], the IC50 is 0.763 nM.
The same measure, in the same setting: the same measure for `C[C@@H](Nc1nc(-c2noc(=O)[nH]2)nc2nc([S+]([O-])c3ccccc3)n(C[C@H]3CC[C@H](C)CC3)c12)C1CCC1` (stereo partly drawn) [Example 19.2, 3-[6-{[(1R)-1-cyclobutylethyl]amino}-7-[(trans-4-methylcyclohexyl)methyl]-8-(phenylsulfinyl)-7H-purin-2-yl]-1,2,4-oxadiazol-5(4H)-one]: 1.77 nM; for `C[C@@H](Nc1nc(-c2noc(=O)[nH]2)nc2nc(S(=O)(=O)c3ccccc3)n(C[C@H]3CC[C@H](C)CC3)c12)C1CCC1` [Example 19.3, 3-[6-{[(1R)-1-cyclobutylethyl]amino}-7-[(trans-4-methylcyclohexyl)methyl]-8-(phenylsulfonyl)-7H-purin-2-yl]-1,2,4-oxadiazol-5(4H)-one]: 0.943 nM.
Still for that read-out and setting: the same measure for `C[C@H]1CC[C@H](Cn2c(SC3CCCC3)nc3nc(-c4n[nH]c(=O)o4)nc(-c4cncc(Cl)c4)c32)CC1` [Example 19.4, 5-{6-(5-chloropyridin-3-yl)-8-(cyclopentylsulfanyl)-7-[(trans-4-methylcyclohexyl)methyl]-7H-purin-2-yl}-1,3,4-oxadiazol-2(3H)-one]: 3.05 nM.
On the same count and under the same terms, then `C[C@H]1CC[C@H](Cn2c(S(=O)(=O)C3CCCC3)nc3nc(-c4n[nH]c(=O)o4)nc(-c4cncc(Cl)c4)c32)CC1` [Example 19.5, 5-{6-(5-chloropyridin-3-yl)-8-(cyclopentylsulfonyl)-7-[(trans-4-methylcyclohexyl)methyl]-7H-purin-2-yl}-1,3,4-oxadiazol-2(3H)-one], with 5.83 nM; and `C[C@H]1CC[C@H](Cn2c(Sc3ccccc3)nc3nc(-c4n[nH]c(=O)o4)nc(-c4cncc(Cl)c4)c32)CC1` [Example 19.6, 5-[6-(5-chloropyridin-3-yl)-7-[(trans-4-methylcyclohexyl)methyl]-8-(phenylsulfanyl)-7H-purin-2-yl]-1,3,4-oxadiazol-2(3H)-one], with 3.14 nM.

The same assay, now with this note: Table 20; read-out: FRET IC50.
For the molecule `C[C@@H](Nc1nc(C(=O)O)nc2nc(C3(c4ccccc4)CCC3)n(C[C@H]3CC[C@H](C)CC3)c12)C1CCC1` [Example 20.1, 6-{[(1R)-1-cyclobutylethyl]amino}-7-[(trans-4-methylcyclohexyl)methyl]-8-(1-phenylcyclobutyl)-7H-purine-2-carboxylic acid], the half-inhibitory concentration (IC50) came out at 1.46 nM.
`C[C@@H](Nc1nc(C(=O)O)nc2nc(C(C)(C)c3ccccc3)n(C[C@H]3CC[C@H](C)CC3)c12)C1CCC1` [Example 20.2, 6-{[(1R)-1-cyclobutylethyl]amino}-7-[(trans-4-methylcyclohexyl)methyl]-8-(1-methyl-1-phenylethyl)-7H-purine-2-carboxylic acid]: the IC50 was determined as 3.45 nM.
For `C[C@@H](Nc1nc(C(=O)O)nc2nc(C3(c4ccccc4)CC3)n(Cc3ccc(C(F)(F)F)cc3)c12)C1CCC1` [Example 20.3, 6-{[(1R)-1-cyclobutylethyl]amino}-8-(1-phenylcyclopropyl)-7-[4-(trifluoromethyl)benzyl]-7H-purine-2-carboxylic acid], the IC50 was determined as 8.57 nM.
Still for that read-out and setting: the same measure for `C[C@@H](Nc1nc(C(=O)O)nc2nc(C3(c4ccccc4)CC3)n(C[C@H]3CC[C@H](C)CC3)c12)C1CCC1` [Example 20.4, 6-{[(1R)-1-cyclobutylethyl]amino}-7-[(trans-4-methylcyclohexyl)methyl]-8-(1-phenylcyclopropyl)-7H-purine-2-carboxylic acid]: 2.58 nM; for `C[C@@H](Nc1nc(-c2noc(=O)[nH]2)nc2nc(C3(c4ccccc4)CC3)n(C[C@H]3CC[C@H](C)CC3)c12)C1CCC1` [Example 20.5, 3-[6-{[(1R)-1-cyclobutylethyl]amino}-7-[(trans-4-methylcyclohexyl)methyl]-8-(1-phenylcyclopropyl)-7H-purin-2-yl]-1,2,4-oxadiazol-5(4H)-one]: 4.98 nM; for `C[C@@H](Nc1nc(C(=O)O)nc2nc(CC(C)(C)C)n(C[C@H]3CC[C@H](C)CC3)c12)C1CCC1` [Example 20.6, 6-{[(1R)-1-cyclobutylethyl]amino}-8-(2,2-dimethylpropyl)-7-[(trans-4-methylcyclohexyl)methyl]-7H-purine-2-carboxylic acid]: 13.9 nM.
In the case of `C[C@@H](Nc1nc(-c2noc(=O)[nH]2)nc2nc(CC(C)(C)C)n(C[C@H]3CC[C@H](C)CC3)c12)C1CCC1` [Example 20.7, 3-(6-{[(1R)-1-cyclobutylethyl]amino}-8-(2,2-dimethylpropyl)-7-[(trans-4-methylcyclohexyl)methyl]-7H-purin-2-yl)-1,2,4-oxadiazol-5(4H)-one], the IC50 worked out at 20.9 nM.
Same read-out and setting: then `C[C@@H](Nc1nc(-c2noc(=O)[nH]2)nc2nc(C3(c4ccccc4)CCC3)n(C[C@H]3CC[C@H](C)CC3)c12)C1CCC1` [Example 20.8, 3-[6-{[(1R)-1-cyclobutylethyl]amino}-7-[(trans-4-methylcyclohexyl)methyl]-8-(1-phenylcyclobutyl)-7H-purin-2-yl]-1,2,4-oxadiazol-5(4H)-one], with 5.96 nM; and `C[C@@H](Nc1nc(-c2n[nH]c(=O)n2C)nc2nc(C3(c4ccccc4)CCC3)n(C[C@H]3CC[C@H](C)CC3)c12)C1CCC1` [Example 20.9, 5-[6-{[(1R)-1-cyclobutylethyl]amino}-7-[(trans-4-methylcyclohexyl)methyl]-8-(1-phenylcyclobutyl)-7H-purin-2-yl]-4-methyl-2,4-dihydro-3H-1,2,4-triazol-3-one], with 84.4 nM; and `C[C@@H](Nc1nc(-c2n[nH]c(=O)o2)nc2nc(C3(c4ccccc4)CCC3)n(C[C@H]3CC[C@H](C)CC3)c12)C1CCC1` [Example 20.10, 5-[6-{[(1R)-1-cyclobutylethyl]amino}-7-[(trans-4-methylcyclohexyl)methyl]-8-(1-phenylcyclobutyl)-7H-purin-2-yl]-1,3,4-oxadiazol-2(3H)-one], with 28.9 nM.
Regarding `C[C@H]1CC[C@H](Cn2c(C3(c4ccccc4)CCC3)nc3nc(-c4noc(=O)[nH]4)nc(-c4cncc(Cl)c4)c32)CC1` [Example 20.11, 3-[6-(5-chloropyridin-3-yl)-7-[(trans-4-methylcyclohexyl)methyl]-8-(1-phenylcyclobutyl)-7H-purin-2-yl]-1,2,4-oxadiazol-5(4H)-one], the 50% inhibitory concentration (IC50) is 3.39 nM.
